Consider 15 compounds from patent publication US8541455B2, “Derivatives of 2-pyridin-2-yl-pyrazol-3(2H)-one, preparation and therapeutic use thereof as HIF activators” (Sanofi, priority 2008, dated 2013).

Series [1] has as its system VEGF secretion by Hep3B cells. The series is described as follows: Measurement of the secretion of VEGF by Hep3B hepatocytes (ELISA on supernatant). Particulars: Homo sapiens, 18 hours incubation under normoxia, VEGF in supernatant, 50% of the maximum response of this same compound. Format: cell-based. The source says: (§1) 2. Measurement of the Secretion of VEGF and EPO by Hep3B Hepatocytes 2.1. Object
(§2) HIF is a transcription factor involved in the adaptation of cells to hypoxia. Since the genes activated by HIF are involved in the adaptive response of cells to hypoxia and of tissues to ischaemia, the object is to identify and characterize compounds that stabilize HIF1-alpha in cells in order to amplify or mimic its beneficial effect. HIF1-alpha was identified following the analysis of the EPO gene promoter, which makes this protein one of the first markers of HIF1-alpha activation. Moreover, VEGF is also identified in the literature as one of the main markers of HIF activation. It is for this reason that measurement of these two proteins was selected for characterizing compounds that are HIF activators in Hep3B cells.
(§3) The object was thus to develop a sensitive screening test, adaptable to 96-well plates, for directly measuring the amount of VEGF and EPO in the supernatant of the Hep3B cells (cells derived from a human hepatocarcinoma) in response to the potential HIF activators.
(§4) The test is an ELISA test for measuring VEGF and EPO in the supernatant of Hep3B cells treated under hypoxia or with deferoxamine as controls or with the potential HIF activators. The test was adapted to a 96-well plate, allowing greater compound screening capacity.
(§5) • 2.3.1 Experiment Plan • 1) Inoculation of the cells on D0 • 2) Adherence for 6 hours under normoxia • 3) Preparation and addition of the products (Biomek 2000 and FX) • 4) Incubation under normoxia for 18 hours • 5) EPO and VEGF assay in the supernatant on D+1 • 2.3.2 Inoculation of the Cells
(§6) The cells are subcultured into 100 μl of culture medium (10% FCS) in black, opaque-bottomed 96-well plates (reference Costar 3916) at 30 000 cells/well, with Multidrop. • 2.3.3 Treatment of the Cells
(§7) The test products are prepared at 10^−2 M in 100% DMSO and then diluted to […] in medium containing 0.1% FCS (6 μl in 194 μl of MEM). 200 μl of each compound are deposited in column 12 of a 96-well plate. Dilution ranges from […] to 3×10^−8M are prepared with Biomek 2000 (programme: range of 9 points in series). 100 μl of MEM 0.1% FCS and Deferoxamine 5×10^−3M are added as controls to column 3 and, respectively, to wells A,B,C,D and wells E,F,G,H • DL Plate Distribution in Cell Plates
(§8) The medium of the cells inoculated the day before into 96-well plates is changed for 90 μl of medium containing 0.1% FCS and 10 μl are distributed with FX 96 from the 96-well DL plates to the cell plates.
(§9) The cell plates thus treated are placed for 18 hours in an incubator at 37° C. (ambient O2, 6% CO2).
(§10) The supernatants (80 μl) of the Hep3B cells in the 96-well plates treated with the potential HIF activators are recovered with a multichannel pipette for simultaneous assay of the VEGF and the EPO by ELISA according to the supplier's instructions (Kit EPO Mesoscale (ref K15122B-2)).
(§11) The activating activity of a compound with respect to HIF is given by the concentration that produces 50% of the maximum response of this same compound in Table IV below.
In general terms: In an ELISA, binding on a coated surface is turned into a signal by an enzyme label.

The subject of series [2] is EPO secretion by Hep3B cells. Kind of series: Measurement of the secretion of EPO by Hep3B hepatocytes (ELISA on supernatant). Format: cell-based. To be noted: Homo sapiens, 18 hours incubation under normoxia, EPO in supernatant, 50% of the maximum response of this same compound.
Description: as §1, §2, §3, §4, §5, §6, §7, §8, §9, §10, §11

Series [3] concerns HIF1-alpha. The series is described as follows: Measurement of the stabilization of HIF1-alpha in HEKEA cells (beta-galactosidase complementation, luminescence). It counts as cell-based, human. Particulars: HEKEA_HIF1-alphaPLBL cells, 6 hours incubation under normoxia; concentration that produces 50% of the maximum response of this same compound. The source says: Furthermore, a subject of the invention is also a uniform test process for the direct measurement by beta-galactosidase complementation of the amount of HIF1-alpha protein in the nucleus of cells, preferably HEK cells, after treating the said cells with one or more test compounds, which consists in: • (a) inoculating, preferably in 384-well plates, the said cells in a suitable culture medium, preferably 1% foetal calf serum (abbreviated as FCS); • (b) adding the test compound(s) at a suitable concentration in a suitable solvent to the cells previously inoculated in the said culture medium; preferably the test compounds are diluted in 0.1% FCS; • (c) incubating the said cells thus prepared in an indicator at about 37° C., advantageously for about 6 hours; • (d) lysing the cells with a lysis buffer containing a chemiluminescent substrate for beta-galactosidase; • (e) incubating in the absence of light, before reading and measuring the luminescence, which is a function of the beta-galactosidase activity.
Many tests exist describing the indirect measurement of the activity of HIF via reporter gene systems (HRE-luciferase) or via the measurement of HIF-induced proteins (for example VEGF or EPO). Furthermore, the only tests that allow direct measurement of the amount of HIF1-alpha protein in cells are tests using antibodies, for instance Western blotting comprising phases of cell extraction (total lysates or nuclear extracts) that are consuming in terms of cells and time, thus limiting the compound screening capacity. The object was thus to develop a sensitive screening test, adaptable to 384-well plates, for directly measuring the amount of HIF1-alpha protein in the nucleus of cells. This test was established in HEK cells ([…]).
The test is a cell test based on the principle of enzyme complementation, the enzyme used herein being beta-galactosidase. HEKEA cells are HEK cells stably expressing, and restricted in their nucleus, mutant beta-galactosidase (omega fragment, also known as EA) (line sold by DiscoverX). This construct makes it possible to obtain beta-galactosidase activity only when the protein comprising the Prolabel complementation fragment has migrated into the nucleus.
The protein of interest comprising the Prolabel fragment is in this case an HIF1-alpha or HIF1-alpha mutated at the two prolines 402 and 564 replaced with alanines, is C-terminal fused via molecular biology (DiscoverX vector sold by Clontech) with the small complementation peptide fragment (Prolabel or ED, about 4 kDa). The vector coding for the chimeric protein HIF1-alpha_Prolabel is then transfected into HEKEA cells to obtain stable clones (HEKEA_HIF1-alphaPLBL).
The amount of C-terminal Prolabel-“labelled” HIF1-alpha protein obtained after treating the cells to hypoxia or compounds that are potentially HIF activators is measured by adding to the cells a lysis buffer containing a chemiluminescent substrate for beta-galactosidase.
The measurement of the beta-galactosidase activity will be proportional to the amount of Prolabel and thus of HIF1-alpha that has migrated into the nucleus of the cells.
• 1.3.1 Experiment Plan • 1) Inoculation of the cells on D0 • 2) Adherence for 24 hours under normoxia • 3) Preparation and addition of the products (Biomek 2000 and FX) on D+1 • 4) Incubation under normoxia for 6 hours • 5) Reading of the plates (by luminescence)
The cells are inoculated with Multidrop in white, opaque-bottomed 384-well plates (Greiner ref 3704), in 30 μl of culture medium (1% FCS) at 10 000 cells/well (cell plate). • 1.3.3 Treatment • Preparation of the Dilution Plate (DL Plate)
The test products are prepared at 3×10^−2 M in 100% DMSO and then diluted to 3×10^−4 M in medium containing 0.1% FCS (10 μl in 990 μl of MEM). They are then deposited by hand into column 12 of a round-bottomed 96-well plate (200 μl of each compound) known as the dilution plate (dl). […]

As usually defined, the EC50 is the concentration needed to bring the measured effect to its halfway point. Read a high EC50 as a less potent agent. What is called melting point is the temperature of the solid-liquid transition. For `CCN(c1ccccc1)S(=O)(=O)c1ccc(-n2[nH]c(C)c(Cc3ccccc3)c2=O)nc1` [Compound 42], the melting point came to 212 °C. This compound also yielded a concentration for a half-maximal effect (EC50) in series [1] of 1.3 µM. In addition, in series [2], the half-maximal effective concentration (EC50) came to 1.1 µM. It took 4.8 µM to reach a half-maximal effect in series [3] (EC50).
On the same counts, the results for `CCN(c1ccccc1)S(=O)(=O)c1ccc(-n2[nH]c(C)c(Cc3cc(OC)ccc3OC)c2=O)nc1` [Compound 44] are 140 °C, 2.1 µM, 1.9 µM and 3.1 µM.
On the same counts, the results for `CCN(c1ccccc1)S(=O)(=O)c1ccc(-n2[nH]c(C)c(Cc3cc(OC)cc(OC)c3)c2=O)nc1` [Compound 47] are 162 °C, 2.8 µM, 2 µM and 1.1 µM.
`CCN(c1ccccc1)S(=O)(=O)c1ccc(-n2[nH]c(C)c(Cc3ccc(O)cc3)c2=O)nc1` [Compound 48] showed a melting point of 208 °C. In series [1], this compound yielded a concentration giving a half-maximal response (EC50) of 1.9 µM. The compound further came in with an EC50 in series [2] of 1.1 µM. This compound also registered a 50% effective concentration (EC50) in series [3] of 4.3 µM.
`CCN(c1ccccc1)S(=O)(=O)c1ccc(-n2[nH]c(C)c(Cc3cccc(N(C)C)c3)c2=O)nc1` [Compound 53, 6-{4-[3-(dimethylamino)benzyl]-3-methyl-5-oxo-2,5-dihydro-1H-pyrazol-1-yl}-N-ethyl-N-phenylpyridine-3-sulfonamide]: the melting point is 122 °C. A half-maximal effect in series [1] (EC50) was put at 3.2 µM. For the same compound, in series [2], the EC50 stood at 0.9 µM. For the same compound, the EC50 in series [3] is 2.6 µM.
On the same counts, the results for `CCN(c1ccccc1)S(=O)(=O)c1ccc(-n2[nH]c(C)c(Cc3ccc(OC)cc3)c2=O)nc1` [Compound 54, N-ethyl-6-[4-(4-methoxybenzyl)-3-methyl-5-oxo-2,5-dihydro-1H-pyrazol-1-yl]-N-phenylpyridine-3-sulfonamide] are 188 °C, 0.3 µM, 0.45 µM and 6.4 µM.
On the same counts, the results for `CCCc1[nH]n(-c2ccc(S(=O)(=O)N(CC)c3ccccc3)cn2)c(=O)c1Cc1ccccc1` [Compound 68, 6-(4-benzyl-5-oxo-3-propyl-2,5-dihydro-1H-pyrazol-1-yl)-N-ethyl-N-phenylpyridine-3-sulfonamide] are 180 °C, 0.5 µM, 0.4 µM and 1.5 µM.
On the same counts, the results for `CCN(c1ccccc1)S(=O)(=O)c1ccc(-n2[nH]c(C)c(C(C)(C)c3ccccc3)c2=O)nc1` [Compound 77, N-ethyl-6-[3-methyl-4-(1-methyl-1-phenylethyl)-5-oxo-2,5-dihydro-1H-pyrazol-1-yl]-N-phenylpyridine-3-sulfonamide] are 122 °C, 1.3 µM, 1.4 µM and 4.8 µM.
In turn, `CCN(c1ccccc1)S(=O)(=O)c1ccc(-n2[nH]c(C)c(C3(c4ccccc4)CC3)c2=O)nc1` [Compound 80, N-ethyl-6-[3-methyl-5-oxo-4-(1-phenylcyclopropyl)-2,5-dihydro-1H-pyrazol-1-yl]-N-phenylpyridine-3-sulfonamide] had a melting point of 146 °C. The compound also yielded a 50% effective concentration (EC50) in series [1] of 0.9 µM. Further, it took 0.4 µM to reach a half-maximal effect in series [2] (EC50). Besides, it took 3.3 µM to reach a half-maximal effect in series [3] (EC50).
In the same order, the values of `CCN(c1ccccc1)S(=O)(=O)c1ccc(-n2[nH]c(C)c(Cc3ncccc3OC)c2=O)nc1` [Compound 81] are 130 °C, 1.9 µM, 1.2 µM and 7.5 µM.
On the same counts, the results for `CCN(c1ccccc1)S(=O)(=O)c1ccc(-n2[nH]c(COC)c(Cc3ccccc3)c2=O)nc1` [Compound 82] are 158 °C, 1.2 µM, 1 µM and 1.5 µM.
In the same order, the values of `CCN(c1ccccc1)S(=O)(=O)c1ccc(-n2[nH]c(C(F)(F)F)c(Cc3ccccc3)c2=O)nc1` [Compound 83, 6-(4-benzyl-5-oxo-3-trifluoromethyl-2,5-dihydro-1H-pyrazol-1-yl)-N-ethyl-N-phenylpyridine-3-sulfonamide] are 186 °C, 1.3 µM, 1.4 µM and 3.3 µM.
For the compound `CCN(c1ccccc1)S(=O)(=O)c1ccc(-n2[nH]c(C)c(CCc3ccccn3)c2=O)nc1` [Compound 85], the melting point was found to be 188 °C. Besides, the EC50 in series [1] turned out to be 2.5 µM. This compound also came in with an EC50 in series [2] of 2.5 µM. Further, the EC50 in series [3] stood at 1.8 µM.
In turn, `CCN(c1ccccc1)S(=O)(=O)c1ccc(-n2[nH]c(CC(C)C)c(Cc3ccccc3)c2=O)nc1` [Compound 88] registered a melting point of 138 °C. This compound also showed a concentration giving a half-maximal response (EC50) in series [1] of 0.4 µM. Further, in series [2], the EC50 came to 0.3 µM. In addition, a half-maximal effect in series [3] (EC50) was put at 0.88 µM.
Take `CCN(c1ccccc1)S(=O)(=O)c1ccc(-n2[nH]cc(Cc3ccccc3)c2=O)nc1` [Compound 93, 6-(4-benzyl-5-oxo-2,5-dihydro-1H-pyrazol-1-yl)-N-ethyl-N-phenylpyridine-3-sulfonamide]: the results for the EC50 in series [1], in series [2] and in series [3] were 0.4 µM, 0.4 µM and 0.35 µM, respectively.
